According to patent US12350308B2, “Phosphorylcholine conjugates and uses thereof” (TPCERA LTD., priority 2013, dated 2025):
Where no end group is shown, it is not given here.

Experiments:
NZBxW/F1 lupus mice [1] = assay: Circulating anti-dsDNA antibodies in lupus mice treated with TD-PC (ELISA); format: in vivo; conditions: sera at 30 weeks, dilution 1:800; between groups incl. PBS
Method: Titers of circulating anti-dsDNA antibodies in the sera of control and treated mice were monitored during the development of lupus, and their levels were measured every 3 weeks. […] FIG. 23 presents the anti dsDNA antibodies titers in the sera at the age 30 weeks at a dilution of 1:800.

[2] = system: female NZBxW/F1 lupus prone mice; assay: Proteinuria onset and immune complex deposits in lupus prone mice treated with TD-PC; format: in vivo; conditions: s.c., prophylactic from week 14
Text: To examine the potential protective effect of TD-PC (SEQ ID NO: 25 conjugated to PC), female NZBxW/F1 lupus prone mice received subcutaneous injections (s.c) of the TD-PC conjugate, phosphorylcholine (PC), tuftsin derivative (SEQ ID NO: 25) or PBS (control) via a prophylactic protocol starting at week 14, before the clinical onset of lupus (n ¼ 15 per group).

Tregs CD4+CD25+FOXP3+ = assay: T regulatory cell profiling by FACS in splenocytes of lupus mice (PC-tuftsin study); format: in vivo; conditions: PBS 4±0.6 percent
Method: Mice, from age of 14 weeks, received subcutaneously PC-tuftsin at the concentration of 50 μg/0.1 ml per mouse (treatment; n=10) or PBS (control; n=10), three times a week. In the cytokines studies, the relative mRNA expression levels of pro-inflammatory cytokine IFNγ and anti-inflammatory cytokine TGFβ were analyzed by real time RT-PCR using LightCycler (Roche). Total RNA was isolated from splenocytes and was reverse-transcribed into cDNA by using Moloney Murine Leukemia Virus Reverse Transcriptase (Promega). The resulting cDNA was subjected to real-time RT-PCR in the presence of specific primers, according to the manufacturer's instructions (Table 2). The relative expression levels of IFNγ and TGFβ were normalized to β-actin levels.
Finally, a T regulatory cell (Tregs) profiling assay was performed in isolated splenocytes incubated with the following antibodies: anti-CD4^+FITC, anti-CD25^+APC and anti-FOXP3^+PE (eBioscience) and analyzed by FACS. Forward and side scatter gates adjusted to include all cells and to exclude debris (Becton Dickinson). Cells were gated on CD4+ cells, and for intracellular staining, the cells were incubated with a fixation solution, washed and resuspended in permeabilization solution (Serotec). Isotype control was used as reference.

NZBxW/F1 lupus mice [3] = assay: Survival of lupus mice treated with TD-PC (Kaplan-Meier); format: in vivo; conditions: already at week 24
Method: A main complication of lupus nephritis is a short survival time due to severe kidney failure. Therefore, the survival time of mice treated either with TD-PC or with PC, tuftsin derivative (SEQ ID NO: 25) or PBS (control) was analyzed.

[4] = system: splenocytes derived from CIA mice; assay: Cytokine secretion in-vitro by splenocytes of mice with established CIA; format: in vivo; conditions: splenocyte culture fluids; for mean IL-10 level: PBS 298; for mean IL-6 level: PBS 840; for mean IL-1β level: PBS 883; for mean TNF-α level: PBS 1073; for mean IL-17 level: PBS 2170
Method: Secretion, in-vitro, of pro-inflammatory and anti-inflammatory cytokines by splenocytes derived from CIA mice treated with TD-PC, PBS, TD, PC, TD+PC or untreated mice was evaluated (FIGS. 32A-32D). The following cytokines secretions were examined: pro-inflammatory IL-1β (FIG. 32A), IL-17 (FIG. 32B), IL-6 (FIG. 32C), TNF-α (FIG. 32D) and anti-inflammatory IL-10 (FIG. 32E).

[5] = system: IL-10+CD25+CD1d+ Breg cells; assay: Breg expansion in splenocytes of mice with established CIA (FACS); format: in vivo; conditions: isolated splenocytes; PBS 0.4%
Method: The mean percentage of Breg cells in isolated splenocytes following treatment with TD-PC, PBS, TD (SEQ ID NO: 25), PC, TD+PC and None was measured within IL-10+CD25+CD1d+ subset. […] Representative data of IL-10+CD25+CD1d+ levels in splenocytes derived from TD-PC, PBS, TD (SEQ ID NO: 25), PC and TD+PC treated mice gating on IL-10+ B cells, are presented in FIG. 34A.

CD4+CD25+FOXP3+ Tregs = assay: Treg expansion in spleen cells of lupus mice treated with TD-PC (FACS); format: in vivo; conditions: gating on CD4+ T cells; PBS 4%
Text: The percentage of CD4+CD25+FOXP3+ Tregs phenotype subset in spleen cells following treatment with TD-PC, tuftsin derivative (SEQ ID NO: 25), PC or PBS, is elucidated in FIGS. 25A-25B.

[6] = system: CD4+CD25+FOXP3+ Treg cells; assay: Treg expansion in splenocytes of mice with established CIA (FACS); format: in vivo; conditions: isolated splenocytes; PBS 1.4%
Text: The frequency of CD4+CD25+FOXP3+ Treg cells subset in isolated splenocytes from mice treated with TPC, PBS, TD (SEQ ID NO: 25), PC, TD+PC or untreated is elucidated in FIGS. 33A and 33B. […] Representative data of the CD4+CD25+FOXP3+ levels in splenocytes derived from TD-PC, PBS, TD (SEQ ID NO: 25), PC and TD+PC treated mice and the untreated group, gating on CD4+ T cells are presented in FIG. 33B.

[7] = Dagan S et al., 1987; cited from earlier work
DBA/1 CIA mice = assay: Arthritis score in mice with established CIA (treatment from day 16); format: in vivo; conditions: for mean arthritis score: day 35, s.c. 3 times a week, PBS 13.8±0.45; for average arthritis score: time 0 (treatment initiation, day 16 after disease induction), baseline
Text: Rheumatoid Arthritis is a progressive joint deformation disease caused by severe inflammation. CIA mice were subjected to subcutaneous injections of TD-PC, tuftsin derivative (SEQ ID NO: 25), PC, a mix of TD and PC, or PBS, 3 times a week. […] Treatment started as day 16 after disease induction when disease symptoms were already notable. […] The significant reduction in arthritis score was illustrious from day 7 after treatment administration and lasted until day 35 (the day mice were sacrificed).

[8] = system: splenocytes of NZBW/F1 female mice; assay: Cytokine secretion in-vitro by splenocytes of lupus mice treated with TD-PC; format: in vivo; conditions: vs PBS; for IL-17 secretion from splenocytes: in vitro; for IL-10 secretion by splenocytes / TGFβ production by splenocytes / reduction of splenocyte secretion of IFNγ: in-vitro
Method: NZBW/F1 female mice having lupus were treated with TD-PC (SEQ ID NO: 25 conjugated to PC) or the corresponding control treatments. Mice were sacrificed at week 30, and their splenocytes were studied in-vitro for the expression of pro-inflammatory cytokines (IFNγ, IL-17) and anti-inflammatory (TGFβ, IL-10) cytokines using RT-PCR. […] In contrast, TD-PC increased the mRNA expression of the anti-inflammatory cytokine TGFβ in the (p<0.001) compared to the mRNA expressed by splenocytes derived from PBS-treated mice (FIG. 24A).
However, a prominent increase in anti-inflammatory cytokines (TGFβ, IL-10) secretion in-vitro by splenocytes derived from TD-PC treated mice is illustrated in FIG. 24B. […] IFNγ secretion upon tuftsin derivative (SEQ ID NO: 25) or PC treatments was reduced by 2.5 and 1.5 times respectively (p<0.03 and p<0.04, respectively).

| Molecule | titers of circulating anti-dsDNA antibodies (NZBxW/F1 lupus mice [1]) | immune complex (IC) deposits in the mesangium / nephritis class [2] | enhancement in Tregs CD4+CD25+FOXP3+ expression level (Tregs CD4+CD25+FOXP3+) | percentage of death number vs PBS injected mice (NZBxW/F1 lupus mice [3]) | mean IL-10 level [4] [pg/mL] | mean IL-6 level [4] [pg/mL] | mean IL-1β level [4] [pg/mL] | mean TNF-α level [4] [pg/mL] | mean IL-17 level [4] [pg/mL] | mean percentage of IL-10+CD25+CD1d+ Breg cells [5] | CD4+CD25+FOXP3+ Tregs in spleen cells (CD4+CD25+FOXP3+ Tregs) [%] | mean percentage of CD4+CD25+FOXP3+ Treg cells [6] [%] | effect on disease progression [7] | mean arthritis score (DBA/1 CIA mice) | average arthritis score (DBA/1 CIA mice) | IL-17 secretion from splenocytes [8] | IL-10 secretion by splenocytes [8] | TGFβ production by splenocytes [8] | reduction of splenocyte secretion of IFNγ [8] [times] |
| --- | --- | --- | --- | --- | --- | --- | --- | --- | --- | --- | --- | --- | --- | --- | --- | --- | --- | --- | --- |
| C[N+](C)(C)CCOP(=O)(O)O [PC, phosphorylcholine] | No statistically significant change | did not diminish the development of strong mesangial damage | did not cause any significant elevation | significant difference | 300 | 795 | 860 | 1048 | 2179 | 0.44% | 3 | 0.81 | inhibitory effect | 14±0 | 3.4±1.1 | to a lower extent | did not have any effect | minimal effect | 1.5 |
| TKPRGY [TD] | No statistically significant change | moderate but not significant effect | – | significant difference | 304 | 778 | 896 | 1079 | 2217 | 0,5% | 8 | 0.52 | – | 13.8±0.45 | 4.6±1.5 | Less significant inhibition | increased IL-10 secretion by splenocytes in-vitro but less significant | moderately enhanced | 2.5 |
| threonine-lysine-proline-arginine [tuftsin] | – | – | did not cause any significant elevation | – | – | – | – | – | – | – | – | – | – | – | – | – | – | – | – |
